The values below come from US7998965B2, “Glutamate aggrecanase inhibitors” (Wyeth LLC, priority 2005, dated 2011).

Read-outs that look alike come from different tables or passages of the source.

Experiment [1] addresses T1, purified recombinant human Aggrecanase-1 (rAgg1) (Homo sapiens, UniProt O75173).
T1 sequence (O75173 213-837): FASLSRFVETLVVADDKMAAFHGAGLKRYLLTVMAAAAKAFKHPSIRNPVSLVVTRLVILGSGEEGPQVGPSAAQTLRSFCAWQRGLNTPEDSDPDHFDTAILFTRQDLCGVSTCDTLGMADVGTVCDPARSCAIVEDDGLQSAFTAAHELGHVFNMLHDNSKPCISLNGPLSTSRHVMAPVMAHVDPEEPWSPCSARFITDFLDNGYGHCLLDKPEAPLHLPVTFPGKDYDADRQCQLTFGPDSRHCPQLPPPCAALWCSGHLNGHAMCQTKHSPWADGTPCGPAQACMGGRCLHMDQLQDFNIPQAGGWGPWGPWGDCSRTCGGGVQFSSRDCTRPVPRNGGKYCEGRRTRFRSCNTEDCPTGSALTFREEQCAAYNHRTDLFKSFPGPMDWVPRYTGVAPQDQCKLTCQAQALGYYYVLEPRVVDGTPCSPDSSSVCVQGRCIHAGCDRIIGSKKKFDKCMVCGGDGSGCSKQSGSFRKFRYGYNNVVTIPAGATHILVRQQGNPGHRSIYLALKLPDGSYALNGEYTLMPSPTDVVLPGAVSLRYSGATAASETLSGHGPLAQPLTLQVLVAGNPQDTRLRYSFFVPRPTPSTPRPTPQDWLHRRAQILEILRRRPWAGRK
Put plainly: In vitro fluorescence screen for Aggrecanase-1 inhibitors. The class given is biochemical. On the set-up: Agg1 % at concentration: scale not given here. As to conditions: for IC50: read-out: Agg1 IC50.

The target in experiment [2] is T2, purified recombinant human Aggrecanase-2 (Ag2t-Phe628-Strep) (Homo sapiens, UniProt Q9UNA0).
T2 construct: the form used is denoted as Ag2t-Phe628-Strep (MW=41,737)
T2 sequence (Q9UNA0 262-628): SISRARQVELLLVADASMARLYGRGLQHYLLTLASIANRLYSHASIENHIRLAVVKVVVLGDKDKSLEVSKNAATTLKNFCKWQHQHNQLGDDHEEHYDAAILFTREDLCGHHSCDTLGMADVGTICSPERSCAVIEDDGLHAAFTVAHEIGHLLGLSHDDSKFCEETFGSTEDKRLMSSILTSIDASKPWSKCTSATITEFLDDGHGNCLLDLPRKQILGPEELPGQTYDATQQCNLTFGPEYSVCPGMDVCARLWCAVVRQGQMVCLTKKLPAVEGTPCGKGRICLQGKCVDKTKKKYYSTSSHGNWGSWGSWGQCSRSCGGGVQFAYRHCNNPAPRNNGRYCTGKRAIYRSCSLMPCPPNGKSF
Put plainly: In vitro fluorescence screen for Aggrecanase-2 inhibitors. The class given is biochemical. As to conditions: for IC50: read-out: Agg 2 IC50.

Turning to `COc1cc(CNC(=O)[C@H](CCC(=O)O)NC(=O)c2ccc(-c3ccc(-c4ccccc4)cc3)cc2)cc(OC)c1OC` [Example 17II, N^2-(1,1′:4′,1″-terphenyl-4-ylcarbonyl)-N-(3,4,5-trimethoxybenzyl)-L-α-glutamine], the IC50 (usually the concentration that gives 50% inhibition) is 1000 to 3000 nM in experiment [1] (Table 2) and around 10000 nM in experiment [2] (Table 2).

For `O=C(O)CC[C@H](NC(=O)c1ccc(-c2ccc(OCc3cccc(F)c3)cc2)cc1)C(=O)NCc1ccccc1` [Example 15I, N-benzyl-N^2-({4′-[(3-fluorobenzyl)oxy]biphenyl-4-yl}carbonyl)-L-α-glutamine], the IC50 in experiment [1] (Table 2) is 430 nM; in experiment [2] (Table 2) it was 1590 nM.

For `CC(C)(Cc1ccc(Cl)cc1)NC(=O)[C@H](CCC(=O)O)NC(=O)c1ccc(-c2cccs2)s1` [N^2-(2,2′-bithien-5-ylcarbonyl)-N-[2-(4-chlorophenyl)-1,1-dimethylethyl]-L-α-glutamine], the IC50 in experiment [1] (Table 3) was below 30 nM; in experiment [2] (Table 3), 600 to 1800 nM. Further, the Ki (as a rule, the equilibrium dissociation constant of an inhibitor or competing ligand from its target) in experiment [1] (Table 3, read-out: Ki Agg1) came to 86 nM; in experiment [2] (Table 3, read-out: Ki Agg2), 1150 nM.

`CC(C)(Cc1ccc(F)cc1)NC(=O)[C@H](CCC(=O)O)NC(=O)c1ccc(-c2ccco2)cc1` [Example 8OOOOOOO, N-[2-(4-fluorophenyl)-1,1-dimethylethyl]-N^2-[4-(2-furyl)benzoyl]-L-α-glutamine]: the IC50 in experiment [1] (Table 3) is below 30 nM; in experiment [2] (Table 3), 100 to 400 nM.

Take `CC(C)(Cc1ccc(F)cc1)NC(=O)[C@H](CCC(=O)O)NC(=O)c1ccc(-c2ccccc2)cc1F` [N^2-[(3-fluorobiphenyl-4-yl)carbonyl]-N-[2-(4-fluorophenyl)-1,1-dimethylethyl]-L-α-glutamine]: the IC50 is below 30 nM in experiment [1] (Table 3) and 200 nM in experiment [2] (Table 3).

In the case of `O=C(O)CC[C@H](NC(=O)c1ccc(-c2ccccc2)cc1)C(=O)NCCc1ccc(-c2ccc(C(F)(F)F)cc2)cc1` [Example 10A, N^2-(biphenyl-4-ylcarbonyl)-N^1-{2-[4′-(trifluoromethyl)biphenyl-4-yl]ethyl}-L-α-glutamine], the values for the IC50 in experiment [1] (Table 1) and in experiment [2] (Table 1) were 840 nM and 2100 nM, respectively.

Regarding `COc1cc(CNC(=O)[C@H](CCC(=O)O)NC(=O)c2ccc(-c3cccc(C(=O)O)c3)cc2)cc(OC)c1OC` [Example 17D, 4′-{[((1S)-3-carboxy-1-{[(3,4,5-trimethoxybenzyl)amino]carbonyl}propyl)amino]carbonyl}biphenyl-3-carboxylic acid], the values for the IC50 in experiment [1] (Table 2) and in experiment [2] (Table 2) were above 17000 nM and above 200000 nM, respectively.

Regarding `CC(C)(Cc1ccc(Cl)cc1)NC(=O)[C@H](CCC(=O)O)NC(=O)c1cccc(-c2ccc(Cl)s2)c1` [Example 8JJJJJJJJJ, N-[2-(4-chlorophenyl)-1,1-dimethylethyl]-N^2-[3-(5-chloro-2-thienyl)benzoyl]-L-α-glutamine], the “Agg1 % at concentration” value in experiment [1] (Table 3, at 25000 (nM)) worked out at 25%. Moreover, the “Agg 2 % at concentration” value in experiment [2] (Table 3, at 25000 (nM)) is reported as 10%.

As for `COc1cccc(-c2ccccc2COc2ccc(-c3ccc(C(=O)N[C@@H](CCC(=O)O)C(=O)NCc4ccccc4)cc3)cc2)c1` [Example 15X, N-benzyl-N^2-({4′-[(3′-methoxybiphenyl-2-yl)methoxy]biphenyl-4-yl}carbonyl)-L-α-glutamine], the “Agg1 % at concentration” value in experiment [1] (Table 3, at 1900 (nM)) is 46%. The “Agg 2 % at concentration” value in experiment [2] (Table 3, at 11000 (nM)) worked out at 52%.

For the compound `O=C(O)CC[C@H](NC(=O)c1ccc(-c2ccc(OCc3ccccc3-c3ccccc3)cc2)cc1)C(=O)NCc1ccccc1` [Example 15W, N-benzyl-N^2-{[4′-(biphenyl-2-ylmethoxy)biphenyl-4-yl]carbonyl}-L-α-glutamine], in experiment [1] (Table 3, at 1900 (nM)), the “Agg1 % at concentration” value is 56%. Besides, the “Agg 2 % at concentration” value in experiment [2] (Table 3, at 11000 (nM)) turned out to be 59%.

Turning to `CC(C)(Cc1ccc(F)cc1)NC(=O)[C@H](CCC(=O)O)NC(=O)c1ccc(-c2ccc3c(c2)CCO3)cc1` [Example 8RRRRRRR, N^2-[4-(2,3-dihydro-1-benzofuran-5-yl)benzoyl]-N-[2-(4-fluorophenyl)-1,1-dimethylethyl]-L-α-glutamine], the IC50 in experiment [1] (Table 3) fell in the range of 70 to 210 nM. For the same compound, the inhibition at 1.2 µM in experiment [2] (read-out: Agg 2 % at concentration) was 48%.

Consider `O=C(O)CC[C@H](NC(=O)c1ccc(/C=C/C(=O)c2ccccc2)cc1)C(=O)NCc1ccccc1` [Example 12I, N-benzyl-N^2-{4-[(1E)-3-oxo-3-phenylprop-1-en-1-yl]benzoyl}-L-α-glutamine], for which the IC50 in experiment [1] (Table 2) is above 25000 nM; in experiment [2] (Table 2), above 20000 nM.

For `COc1cccc(-c2cccc(COc3ccc(-c4ccc(C(=O)N[C@@H](CCC(=O)O)C(=O)NCc5ccccc5)cc4)cc3)c2)c1` [Example 15V, N-benzyl-N^2-({4′-[(3′-methoxybiphenyl-3-yl)methoxy]biphenyl-4-yl}carbonyl)-L-α-glutamine], the “Agg1 % at concentration” value in experiment [1] (Table 3, at 40 (nM)) was 47% 40. Further, in experiment [2] (Table 3), the IC50 was 700 nM.

Take `O=C(O)CC[C@H](NC(=O)c1ccc(-c2ccccc2)cc1)C(=O)NCCc1cccc(-c2ccc(C(F)(F)F)cc2)c1` [Example 10K, N^2-(biphenyl-4-ylcarbonyl)-N^1-{2-[4′-(trifluoromethyl)biphenyl-3-yl]ethyl}-L-α-glutamine]: the IC50 in experiment [1] (Table 1) was 380 nM; in experiment [2] (Table 1), above 100000 nM.

Consider `CCC(C)c1ccc(-c2ccc(C(=O)N[C@@H](CCC(=O)O)C(=O)NC(C)(C)Cc3ccccc3)cc2)cc1` (stereo partly drawn) [Example 17S, N^2-[(4′-sec-butylbiphenyl-4-yl)carbonyl]-N-(1,1-dimethyl-2-phenylethyl)-L-α-glutamine], for which the results for the IC50 in experiment [1] (Table 2) and in experiment [2] (Table 2) were 4600 nM and 10100 nM, respectively.

As for `CC(C)(NC(=O)[C@H](CCC(=O)O)NC(=O)C1c2ccccc2-c2ccccc21)c1ccccc1` [Example 8NNNNN, N^2-(9H-fluoren-9-ylcarbonyl)-N^1-(1-methyl-1-phenylethyl)-L-α-glutamine], the IC50 in experiment [1] (Table 2) was 1200 nM; in experiment [2] (Table 2) it was 1890 nM.

Turning to `CC(C)(Cc1ccc(Cl)s1)NC(=O)[C@H](CCC(=O)O)NC(=O)c1ccc(-c2ccc(F)c(Cl)c2)s1` [Example 8KKKKKKK, N^2-{[5-(3-chloro-4-fluorophenyl)-2-thienyl]carbonyl}-N-[2-(5-chloro-2-thienyl)-1,1-dimethylethyl]-L-α-glutamine], the IC50 in experiment [1] (Table 3) and in experiment [2] (Table 3) was below 30 nM throughout.

Regarding `Cc1cccc(CNC(=O)[C@H](CCC(=O)O)NC(=O)c2ccc(-c3cccc(COc4cc(C(F)(F)F)cc(C(F)(F)F)c4)c3)cc2)c1` [Example 15S, N^2-[(3′-{[3,5-bis(trifluoromethyl)phenoxy]methyl}biphenyl-4-yl)carbonyl]-N-(3-methylbenzyl)-L-α-glutamine], the “Agg1 % at concentration” value in experiment [1] (Table 3, at 1850 (nM)) stood at 30%. Besides, the “Agg 2 % at concentration” value in experiment [2] (Table 3, at 33000 (nM)) amounted to 41%.

Turning to `CC(C)(Cc1ccccc1)NC(=O)[C@H](CCC(=O)O)NC(=O)c1ccc(-c2ccc(C=O)s2)cc1` [N-(1,1-dimethyl-2-phenylethyl)-N^2-[4-(5-formyl-2-thienyl)benzoyl]-L-α-glutamine], the concentration for half-maximal inhibition (IC50) is below 30 nM in experiment [1] (Table 3) and 500 nM in experiment [2] (Table 3).

For `CN(CCc1ccccc1)C(=O)[C@H](CCC(=O)O)NC(=O)c1ccc(-c2ccccc2)cc1` [Example 8CCCCCC, N^2-(biphenyl-4-ylcarbonyl)-N-methyl-N-(2-phenylethyl)-L-α-glutamine], the IC50 is 2400 nM in experiment [1] (Table 2) and above 22000 nM in experiment [2] (Table 2).

Turning to `CC(NC(=O)[C@H](CCC(=O)OC(C)(C)C)NC(=O)c1ccc(-c2ccccc2)cc1)c1ccccc1` (stereo partly drawn) [Example 8SSSSS, tert-butyl N^2-(biphenyl-4-ylcarbonyl)-N^1-(1-Phenylethyl)-L-α-glutaminate], the IC50 stood at 208 nM in experiment [1] (Table 2) and 2470 nM in experiment [2] (Table 2).

Turning to `COc1cc(CNC(=O)[C@H](CCC(=O)O)NC(=O)c2ccc(-c3cccc(C(C)C)c3)cc2)cc(OC)c1OC` [Example 17Z, N^2-[(3′-isopropylbiphenyl-4-yl)carbonyl]-N-(3,4,5-trimethoxybenzyl)-L-α-glutamine], the values for the IC50 in experiment [1] (Table 2) and in experiment [2] (Table 2) were 170 nM and 3140 nM, respectively.

For the compound `C[C@@H](NC(=O)[C@H](CCC(=O)O)NC(=O)c1ccc(-c2ccccc2)cc1)c1ccccc1` [Example 8UUUUU, N^2-(biphenyl-4-ylcarbonyl)-N^1-[(1R)-1-phenylethyl]-L-α-glutamine], the IC50 is 317 nM in experiment [1] (Table 2) and 2120 nM in experiment [2] (Table 2).

Regarding `CN(CCc1ccccc1)C(=O)[C@H](CCC(=O)O)NC(=O)c1ccc2c(c1)Cc1ccccc1-2` [Example 8DDDDDD, N^2-(9H-fluoren-2-ylcarbonyl)-N-methyl-N-(2-phenylethyl)-L-α-glutamine], the IC50 in experiment [1] (Table 2) was 2400 nM; in experiment [2] (Table 2), above 22000 nM.
